The values that follow come from patent US9067871B2, “Aminotetraline derivatives, pharmaceutical compositions containing them, and their use in therapy” (ABBVIE DEUTSCHLAND GMBH & CO KG, priority 2009, dated 2015).

Where a name gives a salt, the structure may show the parent alone.

human GlyT1c transporter, sequence (P48067 whole entry): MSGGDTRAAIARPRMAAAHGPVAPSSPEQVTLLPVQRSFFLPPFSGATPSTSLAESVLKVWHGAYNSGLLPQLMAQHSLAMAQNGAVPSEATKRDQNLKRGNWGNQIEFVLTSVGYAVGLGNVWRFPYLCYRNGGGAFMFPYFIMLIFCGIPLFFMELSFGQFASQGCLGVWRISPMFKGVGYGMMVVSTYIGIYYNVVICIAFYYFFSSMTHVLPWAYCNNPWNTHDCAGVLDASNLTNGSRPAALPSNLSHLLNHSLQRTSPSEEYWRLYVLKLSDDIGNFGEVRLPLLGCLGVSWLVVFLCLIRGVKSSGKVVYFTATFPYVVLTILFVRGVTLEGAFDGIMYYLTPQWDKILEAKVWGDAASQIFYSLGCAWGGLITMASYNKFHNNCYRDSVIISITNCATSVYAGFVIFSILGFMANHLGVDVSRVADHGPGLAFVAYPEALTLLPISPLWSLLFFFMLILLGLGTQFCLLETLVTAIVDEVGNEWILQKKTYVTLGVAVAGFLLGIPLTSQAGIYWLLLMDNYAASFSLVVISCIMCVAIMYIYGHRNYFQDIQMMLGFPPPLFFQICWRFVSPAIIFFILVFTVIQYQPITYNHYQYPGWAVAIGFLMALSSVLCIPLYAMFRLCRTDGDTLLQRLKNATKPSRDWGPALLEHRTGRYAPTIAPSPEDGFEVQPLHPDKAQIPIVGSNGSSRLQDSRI

The first test addresses human GlyT1c transporter (Homo sapiens (Human), UniProt P48067). Nature of the test: Radioligand binding assay using recombinant CHO cell membranes expressing human GlyT1. Particulars: human GlyT1c-expressing CHO cell membranes; hydrochloride; read-out: radioligand binding Kiapp. The text has this: 2. Radioligand binding assays using recombinant CHO cell membranes expressing human GlyT1: […]
In the case of `O=S(=O)(CC1CC1)NCCOc1ccc2c(c1)C(Cc1ccccc1)C(N1CCC1)CC2` (stereo not shown) [Example 142, N-(2-{[7-(Azetidin-1-yl)-8-benzyl-5,6,7,8-tetrahydronaphthalen-2-yl]oxy}ethyl)-1-cyclopropylmethanesulfonamide hydrochloride], the Ki is not above 100 nM.
For `Cn1cnc(S(=O)(=O)NCCOc2ccc3c(c2)C(Cc2ccccc2)C(N2CCCC2)CC3)c1` (stereo not shown) [Example 116, N-(2-(8-Benzyl-7-(pyrrolidin-1-yl)-5,6,7,8-tetrahydronaphthalen-2-yloxy)ethyl)-1-methyl-1H-imidazole-4-sulfonamide hydrochloride], the Ki is not above 10 nM.

Still in this test, the particulars now being: human GlyT1c-expressing CHO cell membranes; read-out: radioligand binding Kiapp.
Regarding `CN(CCOc1ccc2c(c1)C(Cc1ccc(Cl)c(Cl)c1)C(N1CCCC1)CC2)S(=O)(=O)C1CCC1` (stereo not shown) [Example 94, Cyclobutanesulfonic acid {2-[8-(3,4-dichloro-benzyl)-7-pyrrolidin-1-yl-5,6,7,8-tetrahydronaphthalen-2-yloxy]-ethyl}-methyl-amide hydrochloride], the Ki is not above 100 nM.
Turning to `CCCS(=O)(=O)NCCCc1ccc2c(c1)C(Cc1ccccc1)C(N1CCCC1)CC2` (stereo not shown) [Example 265, Propane-1-sulfonic acid [3-(8-benzyl-7-pyrrolidin-1-yl-5,6,7,8-tetrahydro-naphthalen-2-yl)propyl]-amide hydrochloride], the Ki is not above 1000 nM.
Still for that read-out and setting: the value for `NC1CCc2ccc(CCCNS(=O)(=O)CC3CC3)cc2C1Cc1ccc(Cl)cc1` (stereo not shown) [Example 202, N-{3-[7-Amino-8-(4-chlorobenzyl)-5,6,7,8-tetrahydronaphthalen-2-yl]propyl}-1-cyclopropylmethanesulfonamide hydrochloride] was not above 100 nM; that for `CC(C)S(=O)(=O)NCCOc1ccc2c(c1)C(Cc1ccc(Cl)c(Cl)c1)C(N)CC2` (stereo not shown) [Example 91, Propane-2-sulfonic acid {2-[7-amino-8-(3,4-dichloro-benzyl)-5,6,7,8-tetrahydronaphthalen-2-yloxy]-ethyl}-amide hydrochloride] was not above 100 nM; that for `CC(C)NC1CCc2ccc(OCCNS(=O)(=O)CC3CC3)cc2C1Cc1cccc(C#N)c1` (stereo not shown) [Example 156, N-(2-{[8-(3-Cyanobenzyl)-7-(propan-2-ylamino)-5,6,7,8-tetrahydronaphthalen-2-yl]oxy}ethyl)-1-cyclopropylmethanesulfonamide hydrochloride] was not above 1000 nM.
On the same count and under the same terms, the value for `CN(CCCc1ccc2c(c1)C(Cc1cccc(F)c1)C(N)CC2)S(=O)(=O)CC1CC1` (stereo not shown) [Example 230, N-{3-[7-Amino-8-(3-fluorobenzyl)-5,6,7,8-tetrahydronaphthalen-2-yl]propyl}-1-cyclopropylN-methylmethanesulfonamide hydrochloride] was not above 10 nM.
Consider `CCCS(=O)(=O)NCCCc1ccc2c(c1)C(Cc1ccccc1)C(NC(C)=O)CC2` (stereo not shown) [Example 217, N-[1-Benzyl-7-{3-[(propylsulfonyl)amino]propyl}-1,2,3,4-tetrahydronaphthalen-2-yl]acetamide], for which the Ki is not above 10000 nM.
For `NC1CCc2ccc(CCCNS(=O)(=O)CC3CC3)cc2C1Cc1ccccc1Cl` (stereo not shown) [Example 212, N-{3-[7-Amino-8-(2-chloro-benzyl)-5,6,7,8-tetrahydro-naphthalen-2-yl]-propyl}-C-cyclopropyl-methanesulfonamide hydrochloride], the Ki is not above 1000 nM.
As to `CNC1CCc2ccc(OCCNS(=O)(=O)CC3CC3)cc2C1Cc1cc(F)cc(F)c1` (stereo not shown) [Example 243, 1-Cyclopropyl-N-(2-{[8-(3,5-difluorobenzyl)-7-(methylamino)-5,6,7,8-tetrahydronaphthalen-2-yl]oxy}ethylmethanesulfonamide hydrochloride], the Ki is not above 10 nM.
As to `O=S(=O)(CC1CC1)NCCOc1ccc2c(c1)C(Cc1ccc(Cl)c(Cl)c1)C(N1CCC1)CC2` (stereo not shown) [Example 135, N-(2-{[7-(Azetidin-1-yl)-8-(3,4-dichlorobenzyl)-5,6,7,8-tetrahydronaphthalen-2-yl]oxy}ethyl)-1-cyclopropylmethanesulfonamide], the Ki is not above 100 nM.
Still for that read-out and setting: under `CNC1CCc2ccc(OCCNS(=O)(=O)CC3CC3)cc2C1Cc1ccccc1F` (stereo not shown) [Example 312, C-Cyclopropyl-N-{2-[8-(2-fluoro-benzyl)-7-methylamino-5,6,7,8-tetrahydro-naphthalen-2-yloxy]-ethyl}-methanesulfonamide hydrochloride] stands not above 100 nM; under `CCCS(=O)(=O)NCCCc1ccc2c(c1)C(Cc1ccc(F)cc1)C(N)CC2` (stereo not shown) [Example 213, N-{3-[7-Amino-8-(4-fluorobenzyl)-5,6,7,8-tetrahydronaphthalen-2-yl]propyl}propane-1-sulfonamide hydrochloride], not above 100 nM.
For `NC1CCc2ccc(OCCNS(=O)(=O)C3CC3)cc2C1Cc1ccccc1Cl` (stereo not shown) [Example 294, Cyclopropanesulfonic acid {2-[7-amino-8-(2-chloro-benzyl)-5,6,7,8-tetrahydro-naphthalen-2-yloxyl]-ethyl}-amide hydrochloride], the Ki is not above 10000 nM.
As to `Cn1cnc(S(=O)(=O)NCCOc2ccc3c(c2)C(Cc2ccccc2)C(N2CCC(F)C2)CC3)c1` (stereo not shown) [Example 152, N-[2-({8-Benzyl-7-[3-fluoropyrrolidin-1-yl]-5,6,7,8-tetrahydronaphthalen-2-yl}oxy)ethyl]-1-methyl-1H-imidazole-4-sulfonamide hydrochloride], the Ki is not above 10 nM.
Same read-out and setting: under `Cc1cccc(CC2c3cc(OCCNS(=O)(=O)c4cn(C)cn4)ccc3CCC2N2CCCC2)c1` (stereo not shown) [Example 163, 1-Methyl-N-(2-{[8-(3-methylbenzyl)-7-(pyrrolidin-1-yl)-5,6,7,8-tetrahydronaphthalen-2-yl]oxy}ethyl)-1H-imidazole-4-sulfonamide] stands not above 10 nM; under `Cn1ccc(S(=O)(=O)NCCOc2ccc3c(c2)C(Cc2cccc(F)c2)C(N2CCCC2)CC3)c1` (stereo not shown) [Example 267, N-(2-{[8-(3-Fluorobenzyl)-7-(pyrrolidin-1-yl)-5,6,7,8-tetrahydronaphthalen-2-yl]oxy}ethyl)-1-methyl-1H-pyrrole-3-sulfonamide], not above 100 nM; under `CCCS(=O)(=O)N(C)Cc1ccc2c(c1)C(Cc1ccccc1)C(NC)CC2` (stereo not shown) [Example 275, N-{[8-Benzyl-7-(methylamino)-5,6,7,8-tetrahydronaphthalen-2-yl]methyl}-N-methylpropane-1-sulfonamide trifluoroacetate], not above 100 nM.
Turning to `CCCS(=O)(=O)CCc1ccc2c(c1)C(Cc1cccc(Cl)c1)C(N)CC2` (stereo not shown) [Example 326, 1-(3-Chloro-benzyl)-7-[2-(propane-1-sulfonyl)-ethyl]-1,2,3,4-tetrahydro-naphthalen-2-ylamine hydrochloride], the Ki was not above 1000 nM.
Turning to `NC1CCc2ccc(OCCNS(=O)(=O)CC3CCC3)cc2C1Cc1ccc(Cl)c(Cl)c1` (stereo not shown) [Example 106, N-{2-[7-Amino-8-(3,4-dichloro-benzyl)-5,6,7,8-tetrahydro-naphthalen-2-yloxy]-ethyl}-Ccyclobutyl-methanesulfonamide hydrochloride], the Ki is not above 1000 nM.

The same test, now with this note: human GlyT1c-expressing CHO cell membranes; succinate; read-out: radioligand binding Kiapp.
On to `O=S(=O)(CC1CC1)NCCOc1ccc2c(c1)C(Cc1ccccc1)C(N1CCC1)CC2` (single isomer, unassigned; (+)) [Example 144, (+)-N-(2-(7-(azetidin-1-yl)-8-benzyl-5,6,7,8-tetrahydronaphthalen-2-yloxy)ethyl)-1-cyclopropylmethanesulfonamide succinate], for which the Ki is not above 1000 nM.
